Key:
NPRA [1] = experiment: [35S]ATPγS incorporation into NPRA (receptor phosphorylation) in CFs; assay type: cell-based, rat; conditions: ANP 5 minutes, KT5823 1 μM or expressed fragment
Experimental: To identify receptor phosphorylation by PKG, ^[35S]ATPγS was employed as a substrate. [^35S] incorporation into NPRA was analyzed according to the method previously described (Joubert et al., Biochem. 40:11096-105, 2001). Briefly, the treated CFs were scraped into 100 μl ice-cold incubation buffer (25 mM HEPES, pH 7.4, 50 mM NaCl, 5 mM MgCl2, 0.2 μM okadaic acid, 1 mM Na3VO4, 10 mM NaH2PO4, 10 mM NaF, and protease inhibitors (complete mini-tablet, Roche) and lysed by repeated passage through a 22-gauge needle. Lysates were added to incubation buffer containing 1 μCi [^35S]ATPγS (specific activity >1000 Ci/mmol), final volume of 200 μl, incubated at 37° C. for 30 minutes. Proteins were analyzed by SDS-PAGE (7.5%) and subsequent autoradiography.

NPRA [2] = experiment: [35S]ATPγS NPRA phosphorylation in HEK293 / HEK-NPRA cells; assay type: cell-based; conditions: HEK293 that overexpress NPRA
Experimental: To ensure that the 137-kD phosphorylation band observed in the CFs after ANP treatment was, in fact, NPRA, HEK293 or HEK-NPRA were treated with ANP with or without KT5823 as described above. The lysates were divided into two aliquots. One aliquot was incubated with [^35S] ATPγS and then separated by SDS-PAGE, blotted to Immobilon membranes, and visualized by autoradiography. The other aliquot was separated similarly and then probed with anti-NPRA antisera, stripped and re-probed with anti-α-tubulin to assure equal protein loading. Robust phosphorylation of a 137-kD protein occurred in the NPRA-expressing cells, but not in control cells (FIG. 6B). Since both KT5823 and sNRF^(806-1061) inhibit cytosolic-to-plasma membrane translocation of PKG, PKG-NPRA association appears to be required for PKG-induced NPRA phosphorylation.

PKG = target: T1, PKG (Homo sapiens, UniProt Q13976); conditions: earlier observation, Airhart et al. 2003; cited from earlier work
T1 construct: endogenous in cells; host or cells: HEK293 stably over-expressing FLAG-NPRA (HEK-NPRA)
T1 sequence (Q13976 1-671): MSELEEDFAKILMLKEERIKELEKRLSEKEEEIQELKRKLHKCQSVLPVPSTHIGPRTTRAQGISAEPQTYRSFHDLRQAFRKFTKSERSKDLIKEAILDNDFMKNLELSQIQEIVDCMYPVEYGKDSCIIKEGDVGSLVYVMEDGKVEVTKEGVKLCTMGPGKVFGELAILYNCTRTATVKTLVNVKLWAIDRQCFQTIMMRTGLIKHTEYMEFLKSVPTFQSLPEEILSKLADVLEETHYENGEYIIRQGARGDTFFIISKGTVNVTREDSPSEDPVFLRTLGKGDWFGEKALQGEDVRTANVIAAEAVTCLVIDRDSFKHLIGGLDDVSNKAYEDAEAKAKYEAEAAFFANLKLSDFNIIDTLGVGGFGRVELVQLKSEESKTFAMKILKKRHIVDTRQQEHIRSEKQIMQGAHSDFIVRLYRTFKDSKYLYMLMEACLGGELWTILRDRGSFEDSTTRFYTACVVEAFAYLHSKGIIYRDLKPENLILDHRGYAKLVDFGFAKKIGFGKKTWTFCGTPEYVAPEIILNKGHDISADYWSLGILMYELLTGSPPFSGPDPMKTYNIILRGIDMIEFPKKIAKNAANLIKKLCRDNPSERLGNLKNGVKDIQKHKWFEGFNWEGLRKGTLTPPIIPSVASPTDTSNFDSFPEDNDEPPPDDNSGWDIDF

COC(=O)[C@@]1(OC)C[C@H]2O[C@]1(C)n1c3ccccc3c3c4c(c5c6ccccc6n2c5c31)C(=O)N(C)C4 [KT5823]
ANP-induced NPRA phosphorylation (NPRA [1]): reduced ANP-induced NPRA phosphorylation to control levels
NP-dependent phosphorylation of NPRA (NPRA [2]): inhibited
PKG translocation (PKG): inhibits PKG translocation

Reference: patent US7943296B2, “Methods of screening using a natriuretic peptide receptor” (Oregon Health & Science University, priority 2005, dated 2011)
